Where two headings read alike, the source gives them in different places.
Test system: Bloodstream form T. b. brucei (Lister 427)
Assay: Trypanosoma brucei brucei Alamar Blue assay
Type: cell-based
Protocol: IC50 values against trypanosomes were determined by Alamar Blue assay. […] After this time, 20 μL of resazurin dye (Sigma–Aldrich) solution at 0.49 mM was added. […] Output was plotted using the IC50 determination algorithm of Prism 5.0 software (GraphPad). Three independent experiments were carried out in duplicate for each compound.

[1] = Table 1, Alamar Blue, 48 h + 24 h, all standard deviations less than 2%, read-out: IC50 against Trypanosoma brucei brucei
[2] = Trypanosoma brucei, Table 1, Alamar Blue, 48 h + 24 h, all standard deviations less than 2%, read-out: IC50 against Trypanosoma brucei brucei
[3] = Trypanosoma brucei, values in μM, read-out: IC50 against T. b. brucei
[4] = Trypanosoma brucei, Table S2 (supplement), T. b. brucei activity, read-out: IC50

| Compound | IC50 [2] [µM] | IC50 [4] [µM] | also measured |
| --- | --- | --- | --- |
| 2-{[(4-{[(4-{[Imino(4-methoxy-2-pyridinyl)methyl]amino}-1-methyl-1H-pyrrol-2-yl)carbonyl]amino}-1-methyl-1H-pyrrol-2-yl)carbonyl]amino}-5-isopropyl-N-[2-(4-morpholinyl)ethyl]-1,3-thiazole-4-carboxamide [Compound 5] | – | – | IC50 [1]: > 75 µM; IC50 (values in μM, read-out: IC50 against T. b. brucei): > 75 µM |
| 4-(Formylamino)-1-methyl-N-[1-methyl-5-({[1-methyl-5-({[2-(4-morpholinyl)ethyl]amino}carbonyl)-1H-pyrrol-3-yl]amino}carbonyl)-1H-pyrrol-3-yl]-1H-pyrrole-2-carboxamide [Compound 4] | – | – | IC50 [1]: 48 µM |
| CN(C)CCCNC(=O)c1cc(NC(=O)c2cc(NC(=O)c3cc(NC(=N)c4ccccc4)cn3C)cn2C)cn1C [Compound 1, N-[5-({[5-({[3-(Dimethylamino)propyl]amino}carbonyl)-1-methyl-1H-pyrrol-3-yl]amino}carbonyl)-1-methyl-1H-pyrrol-3-yl]-4-{[imino(phenyl)methyl]amino}-1-methyl-1H-pyrrole-2-carboxamide] | > 75 | – | IC50 [3]: > 75 µM |
| CC(=N)Nc1cc(C(=O)Nc2cc(C(=O)Nc3cc(C(=O)NCCCN(C)C)n(C)c3)n(C)c2)n(C)c1 [Compound 2, N-[5-({[5-({[3-(Dimethylamino)propyl]amino}carbonyl)-1-methyl-1H-pyrrol-3-yl]amino}carbonyl)-1-methyl-1H-pyrrol-3-yl]-4-(ethanimidoylamino)-1-methyl-1H-pyrrole-2-carboxamide] | > 75 | – | IC50 [3]: > 75 µM |
| Cn1cc(NC(=O)c2cc(NC(=O)c3cc(NC(=O)c4ccc(Cl)cc4Cl)cn3C)cn2C)cc1C(=O)NCCN1CCOCC1 [Compound 3, 4-[(2,4-Dichlorobenzoyl)amino]-1-methyl-N-[1-methyl-5-({[1-methyl-5-({[2-(4-morpholinyl)ethyl]amino}carbonyl)-1H-pyrrol-3-yl]amino}carbonyl)-1H-pyrrol-3-yl]-1H-pyrrole-2-carboxamide] | 0.4 | – | – |
| CC(C)n1cc(NC(=O)c2cc(NC(=O)c3cnc(Cl)c(Cl)c3)cn2C)cc1C(=O)Nc1cc(C(=O)NCCCN(C)C)n(C)c1 [Compound 6, 5,6-Dichloro-N-[5-({[5-({[5-({[3-(dimethylamino)propyl]amino}carbonyl)-1-methyl-1H-pyrrol-3-yl]amino}carbonyl)-1-isopropyl-1H-pyrrol-3-yl]amino}carbonyl)-1-methyl-1H-pyrrol-3-yl]nicotinamide] | 4 | – | – |
| COc1cccc(C(=N)Nc2cc(C(=O)Nc3cc(C(=O)Nc4cc(C(=O)NCCCN(C)C)n(C)c4)n(C(C)C)c3)n(C)c2)c1 [Compound 7, N-[5-({[5-({[3-(Dimethylamino)propyl]amino}carbonyl)-1-methyl-1H-pyrrol-3-yl]amino}carbonyl)-1-isopropyl-1H-pyrrol-3-yl]-4-{[imino(3-methoxyphenyl)methyl]amino}-1-methyl-1H-pyrrole-2-carboxamide] | 27 | – | – |
| COc1cccc(C(=N)Nc2cc(C(=O)Nc3cc(C(=O)Nc4cc(C(=O)NCCCN5CCOCC5)n(C)c4)n(C)c3)n(C)c2)c1 [Compound 9, 4-{[(4-{[imino(3-methoxyphenyl)methyl]amino}-1-methyl-1H-pyrrol-2-yl)carbonyl]amino}-1-methyl-N-[1-methyl-5-({[3-(4-morpholinyl)propyl]amino}carbonyl)-1H-pyrrol-3-yl]-1H-pyrrole-2-carboxamide] | > 75 | – | IC50 [3]: > 75 µM |
| COc1cccc(/C=C/c2ccc(C(=O)Nc3cc(C(=O)Nc4nc(C(=O)NCCCN(C)C)c(CCC(C)C)s4)n(C)c3)cc2)c1 [Compound 11, N-[3-(dimethylamino)propyl]-5-isopentyl-2-({[4-({4-[(E)-2-(3-methoxyphenyl)ethenyl]benzoyl}amino)-1-methyl-1H-pyrrol-2-yl]carbonyl}amino)-1,3-thiazole-4-carboxamide] | 0.28 | 0.3 | – |
| COc1cccc(/C=C/c2cccc(C(=O)Nc3cc(C(=O)Nc4nc(C(=O)NCCCN(C)C)c(CCC(C)C)s4)n(C)c3)c2)c1 [Compound 12, N-[3-(Dimethylamino)propyl]-5-isopentyl-2-({[4-({3-[(E)-2-(3-methoxyphenyl)ethenyl]benzoyl}amino)-1-methyl-1H-pyrrol-2-yl]carbonyl}amino)-1,3-thiazole-4-carboxamide] | 0.18 | 0.28 | – |
| CC(C)CCc1sc(NC(=O)c2cc(NC(=O)c3cc(/C=C/c4ccc([N+](=O)[O-])cc4)cn3C)cn2C)nc1C(=O)NCCCN(C)C [Compound 13, N-[3-(dimethylamino)propyl]-5-isopentyl-2-[({1-methyl-4-[({1-methyl-4-[(E)-2-(4-nitrophenyl)ethenyl]-1H-pyrrol-2-yl}carbonyl)amino]-1H-pyrrol-2-yl}carbonyl)amino]-1,3-thiazole-4-carboxamide] | 0.21 | 0.18 | – |
| Cn1cc(NC(=O)c2cc(NC(=O)c3cc4ccccc4cn3)cn2C)cc1C(=O)NCCN1CCOCC1 [Compound 14, N-[1-Methyl-5-({[1-methyl-5-({[2-(4-morpholinyl)ethyl]amino}carbonyl)-1H-pyrrol-3-yl]amino}carbonyl)-1H-pyrrol-3-yl]-3-isoquinolinecarboxamide] | 0.97 | 0.21 | – |
| CN(C)CCCNC(=O)c1cc(NC(=O)c2cc(NC(=O)c3cc4ccccc4cn3)cn2C)cn1C [Compound 15, N-[5-({[5-({[3-(Dimethylamino)propyl]amino}carbonyl)-1-methyl-1H-pyrrol-3-yl]amino}carbonyl)-1-methyl-1H-pyrrol-3-yl]-3-isoquinolinecarboxamide] | 2.2 | 0.97 | – |
| Cn1cc(NC(=O)c2cc(NC(=O)c3ccc(/C=C/c4nc5ccccc5o4)cc3)cn2C)cc1C(=O)NCCN1CCOCC1 [Compound 16, 4-({4-[(E)-2-(1,3-benzoxazol-2-yl)ethenyl]benzoyl}amino)-1-methyl-N-[1-methyl-5-({[2-(4-morpholinyl)ethyl]amino}carbonyl)-1H-pyrrol-3-yl]-1H-pyrrole-2-carboxamide] | 0.79 | 2.2 | – |
| CN(C)CCCNC(=O)c1cc(NC(=O)c2cc(NC(=O)c3cc(NC(=N)c4cc5ccccc5cn4)cn3C)cn2C)cn1C [Compound 17, N-[5-({[3-(dimethylamino)propyl]amino}carbonyl)-1-methyl-1H-pyrrol-3-yl]-4-{[(4-{[imino(3-isoquinolinyl)methyl]amino}-1-methyl-1H-pyrrol-2-yl)carbonyl]amino}-1-methyl-1H-pyrrole-2-carboxamide] | 4.9 | – | – |
| CC(C)CCc1sc(NC(=O)c2cc(NC(=O)c3cc4ccccc4cn3)cn2C)nc1C(=O)NCCCN(C)C [Compound 18, N-[5-({[4-({[3-(Dimethylamino)propyl]amino}carbonyl)-5-isopentyl-1,3-thiazol-2-yl]amino}carbonyl)-1-methyl-1H-pyrrol-3-yl]-3-isoquinolinecarboxamide] | 0.39 | – | – |
| Cn1cc(NC(=O)c2cc(NC(=O)c3ccc(/C=C/c4ccc(C(F)(F)F)cc4)cc3)cn2C)cc1C(=O)NCCN1CCOCC1 [Compound 22, 1-methyl-N-[1-methyl-5-({[2-(4-morpholinyl)ethyl]amino}carbonyl)-1H-pyrrol-3-yl]-4-[(4-{(E)-2-[4-(trifluoromethyl)phenyl]ethenyl}benzoyl)amino]-1H-pyrrole-2-carboxamide] | 0.73 | – | – |

From article PMC4872591, “An evaluation of Minor Groove Binders as anti-Trypanosoma brucei brucei therapeutics” (European Journal of Medicinal Chemistry, 2016)
